The values below come from US20230130513A1, “Magnetic-Responsive Photosensitizer Nanoplatform and Uses Thereof” (University of Maryland, Baltimore, priority 2021, published 2023).

The test system of data set [1] is Human gingival fibroblasts.
Method: Human gingival fibroblasts (HGF, ScienCell, San Diego, Calif., USA) were cultured using fibroblast medium (FM) supplemented with 2% fetal bovine serum, 1% fibroblast growth supplement, 100 IU/mL penicillin, and 100 IU/mL streptomycin (18 76). When the viability of the cells was above 90%, the cells were seeded in the wells of a 96-well plate (5,000 cells per well) and incubated for 24 h. In the following day, the medium was removed, and different concentrations of superparamagnetic iron(II) oxide nanoparticles (0.25, 0.5, 1, 1.5, 2, 2.5, and 5 wt. %) nanoparticles with and without 100 μg/mL of TBO photosensitizer were dissolved in the fibroblast medium and incubated in contact with the cells for 24 h. The synthesized microemulsions containing the different concentrations of superparamagnetic iron(II) oxide nanoparticles (0.25, 0.5, 1, 1.5, 2, 2.5, and 5 wt. %) were also tested. All the microemulsions were diluted with the fibroblast medium at a 1:1 ratio. After 24 h of incubation at 37° C. with 5% CO2, the cells were washed with phosphate-buffered saline (PBS), and cell counting Kit-8 (CCK-8, Dojindo, Rockville, Md., USA) was used to evaluate the cell viability. The absorbance was read at 450 nm using a spectrophotometer (SpectraMax M5, Molecular Devices, Sunnyvale, Calif., USA). For the live/dead assay, the fibroblast cells were seeded in the wells of a 24-well plate (40,000 cells per well). The medium was changed daily to allow the viability to be above 90%. Microemulsions containing 5 and 2.5% were added to a fresh culture medium at the ratio of 1:1 and incubated with the cells for one day. Wells treated with TBO alone or with no treatment were used as controls. After one day of incubation, the old medium was removed, cells were washed with PBS, and LIVE/DEAD™ Cell Imaging Kit (Invitrogen, Frederick, Md., USA) was used to stain the cells. The cells were visualized using an inverted epifluorescence microscope (Eclipse TE2000-S, Nikon, Melville, N.Y., USA).
The subject of a further data set is S. mutans UA159 biofilms. In words: Photodynamic treatment against Streptococcus mutans biofilms (CFU). Format: cell-based. To be noted: for antibacterial effect of core components on S. mutans biofilm: components alone, diluted to their concentration in the microemulsion (FIG. 5A). As for the experimental part:
Photodynamic Treatment Via MagTBO Against Streptococcus mutans Biofilms S. mutans UA159 obtained from the American Type Culture Collection (ATCC, Manassas, Va., USA) were grown overnight using brain heart infusion (BHI) broth (Sigma-Aldrich, St. Louis, Mo., USA) at 37° C. and 5% CO2 incubator. The optical density of the S. mutans was modified to 1×10^8 colony-forming units (CFU)/mL (OD600=0.9) and diluted 1:20 with BHI broth supplemented with 2% of sucrose (12). 200 μL of the diluted overnight culture was placed inside the wells of a black 96-well plate for 24 h. The media was changed after 24 h and 48 h of biofilm growth was continued. The biofilm was washed with 0.9% saline and irradiated with 100 μg/mL of TBO and MagTBO microemulsions containing 1, 2.5, and 5% of SPIONs with and without magnetic field (neodymium magnet, 0.4 Tesla; pull force=601b5). The TBO or the microemulsions were left for 1 min and then irradiated for 5 minutes to deliver an energy density of 180 J/cm^2 and light intensity of 180 mW. The magnetic field was applied at a 10 mm distance below the biofilm during the entire period of the incubation and irradiation times (FIG. 1C). Untreated wells and wells treated with glycerol, essential oil, and polysorbate 20 were used as controls. After each treatment, the biofilms were washed by placing 200 μL of 0.9% saline inside the well, and then, the 0.9% saline was gently aspirated. Next, another 200 μL of saline was placed inside the well, and the biofilm was gently scraped to remove the biofilm cells (23). Then, the biofilm cells were resuspended with the saline to perform serial dilutions (1:10, 1:100, 1:1000, 1:10 000, and 1:100 000) using BHI agar. The BHI agar plates were incubated for 48 h at 37° C. in a 5% CO2 incubator and then counted using a colony counter. Considering the dilution factor, the CFUs/mL were calculated and estimated to measure the number of colonies per milliliter. Two wells were randomly selected for Live/Dead staining of the biofilms to be washed with 0.9% saline and then stained with the BacLight live/dead kit (Molecular Probes, Eugene, Oreg.).

The test system of another data set is S. mutans biofilms. Nature of the data set: Live/Dead staining of S. mutans biofilms. Format: cell-based, Streptococcus mutans. To be noted: aPDT, no magnetic field. As for the experimental part:
After each treatment, the biofilms were washed by placing 200 μL of 0.9% saline inside the well, and then, the 0.9% saline was gently aspirated. Next, another 200 μL of saline was placed inside the well, and the biofilm was gently scraped to remove the biofilm cells (23). Then, the biofilm cells were resuspended with the saline to perform serial dilutions (1:10, 1:100, 1:1000, 1:10 000, and 1:100 000) using BHI agar. The BHI agar plates were incubated for 48 h at 37° C. in a 5% CO2 incubator and then counted using a colony counter. Considering the dilution factor, the CFUs/mL were calculated and estimated to measure the number of colonies per milliliter. Two wells were randomly selected for Live/Dead staining of the biofilms to be washed with 0.9% saline and then stained with the BacLight live/dead kit (Molecular Probes, Eugene, Oreg.).

A short description of the next data set: pH measurement. Format: physicochemical. The conditions noted are these: room temperature. As for the experimental part: (§1) Three microemulsions were selected for further investigations (1, 2.5, and 5 wt. %). Microemulsions were tested for thermodynamic stability via centrifugation stress at 5,000 rpm for 2 h at 4° C., and freeze-thaw stress consisting of three complete cycles. Each cycle consisted of placing the microemulsion for 24 h at −20° C. followed by another 24 h at 4° C. […] For long-term stability, microemulsions were kept in the dark at room temperature and then examined at 1, 3, and 6 months for physical changes or phase separation (21,22). The pH of the synthesized microemulsions was tested using a digital pH meter (accuracy±5%; Accumet XL25, Thermo Fisher Scientific, Waltham, Mass., USA). Before the pH measurement, the pH meter was calibrated using commercial standard buffer solutions of pH 4, pH 7, and pH 10 at room temperature. For the absorbance evaluation, the upper third of the synthesized microemulsions was investigated over time using ultraviolet-visible optical absorption spectrometry (SpectraMax M5, Molecular Devices, Sunnyvale, Calif., USA). […] The density of each microemulsion was calculated following the equation: […]

Data set [2] has as its system mouse monocyte-macrophage cells. To be noted: cited from earlier work.
In data set [3] the test system is saliva-derived multispecies biofilms. In words: Photodynamic treatment against saliva-derived biofilms (CFU). Format: cell-based. To be noted: 7-day biofilm on dentin slabs, aPDT, no magnetic field, vs control. How it is done:
Photodynamic Treatment with MagTBO Against Saliva-Derived Biofilms
Saliva samples were collected from ten healthy individuals with no active carious lesions or history of antibiotics in the last three months. The participants were instructed not to brush their teeth 24 h and not eat or drink two h before the collection. The collected saliva samples were mixed to create a homogenous and complex bacterial composition. The use of saliva as inoculum was approved by the University of Maryland Baltimore Institutional Review Board (HP-00050407). The collected saliva was mixed with glycerol (70:30) and stored at −80° C. This model was used in previous studies to form thick and mature multispecies biofilm (24-26).
Dentin slabs (6×6×1 mm) were used as substrates to grow the biofilm (FIG. 8A). The slabs were prepared from radicular dentin of extracted teeth using a diamond saw with water as coolant (Isomet, Buehler, Lake Bluff, Ill., USA). The collection and the use of extracted teeth were approved by the University of Maryland Baltimore Institutional Review Board. […] The microhardness of the slabs was measured via Vicker's indentation (HMV II, Shimadzu Corporation, Kyoto, Japan) by calculating the average of five different indentations (25 g load for 10 s) per slab (27). […]

Data set [4] deals with Human gingival fibroblasts. In words: Live/dead assay of fibroblast cells. The class given is cell-based. To be noted: one day incubation; microemulsions 1:1 with medium.
Method: Human gingival fibroblasts (HGF, ScienCell, San Diego, Calif., USA) were cultured using fibroblast medium (FM) supplemented with 2% fetal bovine serum, 1% fibroblast growth supplement, 100 IU/mL penicillin, and 100 IU/mL streptomycin (18 76). When the viability of the cells was above 90%, the cells were seeded in the wells of a 96-well plate (5,000 cells per well) and incubated for 24 h. In the following day, the medium was removed, and different concentrations of superparamagnetic iron(II) oxide nanoparticles (0.25, 0.5, 1, 1.5, 2, 2.5, and 5 wt. %) nanoparticles with and without 100 μg/mL of TBO photosensitizer were dissolved in the fibroblast medium and incubated in contact with the cells for 24 h. The synthesized microemulsions containing the different concentrations of superparamagnetic iron(II) oxide nanoparticles (0.25, 0.5, 1, 1.5, 2, 2.5, and 5 wt. %) were also tested. All the microemulsions were diluted with the fibroblast medium at a 1:1 ratio. After 24 h of incubation at 37° C. with 5% CO2, the cells were washed with phosphate-buffered saline (PBS), and cell counting Kit-8 (CCK-8, Dojindo, Rockville, Md., USA) was used to evaluate the cell viability. The absorbance was read at 450 nm using a spectrophotometer (SpectraMax M5, Molecular Devices, Sunnyvale, Calif., USA). […]
Data set [5] can be described thus: Absorbance change over time (UV-visible spectrometry). The class given is physicochemical. As for the experimental part: as §1
A further data set can be described thus: Density of microemulsion. The class given is physicochemical.

For polysorbate 20, in data set [1] (added to fibroblast media in a ratio similar to their proportion in the microemulsion), the “cytotoxicity of the microemulsion components (in words)” value is reported as “significant cytotoxicity”. In addition, the “antibacterial effect of core components on S. mutans biofilm” value in the data set on S. mutans UA159 biofilms is “None of the components were associated with any antibacterial effect”.

On to `OCC(O)CO` [glycerol], for which the “antibacterial effect of core components on S. mutans biofilm” value with S. mutans UA159 biofilms was “None of the components were associated with any antibacterial effect”.

Consider `Cc1cc2nc3ccc(N(C)C)cc3[s+]c2cc1N.[Cl-]` [TBO, toluidine blue O], for which the “viable microorganisms in live/dead images” value with S. mutans biofilms is listed as “significant reduction in the viable microorganisms”. The “pH Measurement” value in “pH measurement” amounted to 3.19 ± 0.05. In addition, the “toxicity against macrophage cells” value in [2] (100 μg/mL TBO, previous report (12)) is given as “did not induce significant toxicity”. For the same compound, in data set [2] (concentrations higher than 100 μg/mL, reported (12)), the “cytotoxicity against macrophage cell line” value was “critical cytotoxicity”. Further, the “reduction of multispecies biofilm CFU (total microorganisms, total streptococci, mutans streptococci, total lactobacilli)” value in data set [3] is on record as “around 1 log”. In data set [4], the “viable cells in live/dead images” value is listed as “significantly reduced viability”. Also, the “Absorbance change (%)” value in data set [5] (1-Month), in [5] (3-Month) and in data set [5] (6-Month) was “No change” throughout. Also, the “percentage of fibroblast viability” value in [1] (TBO alone, 100 μg/mL, 24 h) came out at 33.4%. In addition, the “cytotoxicity against fibroblasts (in words)” value in [1] (compared to the control) was “significant toxicity”. In the data set on S. mutans UA159 biofilms (aPDT with light activation 180 J/cm2, no magnetic field, vs control (FIG. 5C)), the “reduction against the S. mutans biofilm (CFU)” value is 3 log. Moreover, the “antibacterial effect on S. mutans biofilm” value in the data set with S. mutans UA159 biofilms (incubated for 5 min without light activation (FIG. 5B)) is listed as “No antibacterial effect”. In “Density of microemulsion”, the Density is 1 g/mL.
